Assay results: patent US11807693B2 (priority 2014, dated 2023)
Starred links: 1 amine or outer side, 2 acyl side, 3 side chain; linkers in the order of their positions; H or OH if unused. Non-standard residues stand in square brackets, D forms with d. Residues, ends and D or L forms follow the SMILES beside them. *: point of attachment. dBip = N[C@H](Cc1ccc(-c2ccccc2)cc1)C(=O)O; Oic = O=C(O)[C@@H]1C[C@@H]2CCCC[C@@H]2N1; Phe(4-Cl) = N[C@@H](Cc1ccc(Cl)cc1)C(=O)O; Phe(4-I) = N[C@@H](Cc1ccc(I)cc1)C(=O)O; γGlu = O=C(O)[C@H](CCC(=O)[*:2])N[*:1]; d(β3hF) = N[C@@H](CC(=O)O)Cc1ccccc1; NMeR = CN[C@@H](CCCNC(=N)N)C(=O)O; Tridecanoyl = CCCCCCCCCCCCC(=O)*; hArg = N=C(N)NCCCC[C@H](N)C(=O)O; Cha = N[C@@H](CC1CCCCC1)C(=O)O; NMeL = CN[C@@H](CC(C)C)C(=O)O; Tle = CC(C)(C)[C@H](N)C(=O)O; β3hV = CC(C)[C@H](N)CC(=O)O; β3hP = O=C(O)C[C@@H]1CCCN1; Pip = O=C(O)[C@@H]1CCCCN1; Nle = CCCC[C@H](N)C(=O)O; Orn = NCCC[C@H](N)C(=O)O; Hexanoyl = CCCCCC(=O)*; AEEA = NCCOCCOCC(=O)O; Aib = CC(C)(N)C(=O)O

What was measured:
Type in all cases: in vitro ADME
[1] = In vitro stability in rat plasma
Procedure, shortened: (§1)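 Peptide 5 μM final; rat plasma / liver homog. / kidney homog.; 37° C., 4 hr. Quench MeOH + IS, vortex 15 min RT, spin 5500 g 15 min; supernatant by HR LC-MS.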

[2] = In vitro stability in rat kidney homogenate; conditions: rat, tissue homogenate
Protocol: Apelin peptides were spiked into rat plasma, liver homogenate, and kidney homogenate, which were obtained from commercial sources, to a final concentration of 5 μM. The samples were then incubated at 37° C. over a period of 4 hr. […] In a typical experiment, an aliquot of 100 μL of sample was taken from the incubation vial, followed by addition of 300 μL of MeOH containing internal standard. The quenched sample was centrifuged at 5500 g for 15 min after 15 min vortex in room temperature. The supernatant was then analyzed by high resolution LC-MS. […] In vitro plasma, […], and kidney stability results are shown below in Table 14.

[3] = In vitro stability in rat liver homogenate; conditions: tissue homogenate
Procedure, shortened: as §1

| Compound | remaining at 4 h, 5 μM [1] [%] | remaining at 4 h, 5 μM [2] [%] | remaining at 4 h, 5 μM [3] [%] |
| --- | --- | --- | --- |
| CCCCCCCCCCCCC(=O)N[C@@H](CCC(=O)NCCOCCOCC(=O)NCCOCCOCC(=O)N[C@@H](CCC(N)=O)C(=O)N1CCC[C@H]1CC(=O)N(C)[C@@H](CCCNC(=N)N)C(=O)N[C@@H](CC1CCCCC1)C(=O)N[C@@H](CO)C(=O)N[C@@H](Cc1c[nH]cn1)C(=O)N[C@@H](CCCCN)C(=O)NCC(=O)N1[C@H](C(=O)N[C@@H](CCCC)C(=O)NC(C)(C)C(=O)N[C@@H](Cc2ccc(Cl)cc2)C(=O)O)C[C@@H]2CCCC[C@@H]21)C(=O)O [compound 550] ({Tridecanoyl-γGlu-AEEA-AEEA}-Q[β3hP][NMeR][Cha]SHKG[Oic][Nle][Aib][Phe(4-Cl)]-OH) | > 90 | < 1 | 2 |
| CCCCCCCCCCCCC(=O)N[C@@H](CCC(=O)NCCOCCOCC(=O)NCCOCCOCC(=O)N[C@@H](CCC(N)=O)C(=O)N[C@@H](CCCNC(=N)N)C(=O)N1CCC[C@H]1C(=O)N(C)[C@@H](CCCNC(=N)N)C(=O)N[C@@H](CC1CCCCC1)C(=O)N[C@@H](CO)C(=O)N[C@@H](Cc1c[nH]cn1)C(=O)N[C@@H](CCCCN)C(=O)NCC(=O)N1[C@H](C(=O)N[C@@H](CCCC)C(=O)N2CCC[C@H]2C(=O)N[C@@H](CC(=O)O)Cc2ccccc2)C[C@@H]2CCCC[C@@H]21)C(=O)O [compound 380] ({Tridecanoyl-γGlu-AEEA-AEEA}-QRP[NMeR][Cha]SHKG[Oic][Nle]P[d(β3hF)]-OH) | 97 | 1 | 2 |
| CCCCCCCCCCCCC(=O)N[C@@H](CCC(=O)NCCOCCOCC(=O)NCCOCCOCC(=O)N[C@H](CCC(N)=O)C(=O)N[C@@H](CCCNC(=N)N)C(=O)N1CCCC[C@H]1C(=O)N(C)[C@@H](CCCNC(=N)N)C(=O)N[C@@H](CC1CCCCC1)C(=O)N[C@@H](CO)C(=O)N[C@@H](Cc1c[nH]cn1)C(=O)N[C@@H](CCCCN)C(=O)NCC(=O)N1[C@H](C(=O)N[C@@H](CCCC)C(=O)NC(C)(C)C(=O)N[C@@H](Cc2ccc(Cl)cc2)C(=O)O)C[C@@H]2CCCC[C@@H]21)C(=O)O [compound 517] ({Tridecanoyl-γGlu-AEEA-AEEA}-[dQ]R[Pip][NMeR][Cha]SHKG[Oic][Nle][Aib][Phe(4-Cl)]-OH) | > 90 | < 1 | 19 |
| CCCCCCCCCCCCC(=O)N[C@@H](CCC(=O)NCCOCCOCC(=O)NCCOCCOCC(=O)N[C@H](CCC(N)=O)C(=O)N[C@@H](CCCCNC(=N)N)C(=O)N1CCC[C@H]1C(=O)N[C@H](CCCNC(=N)N)C(=O)N[C@@H](CC1CCCCC1)C(=O)N[C@@H](CO)C(=O)N[C@@H](Cc1c[nH]cn1)C(=O)N[C@@H](CCCCN)C(=O)N[C@H](C(=O)N1[C@H](C(=O)N[C@@H](CCCC)C(=O)N2CCC[C@H]2C(=O)N[C@@H](Cc2ccc(Cl)cc2)C(=O)O)C[C@@H]2CCCC[C@@H]21)C(C)(C)C)C(=O)O [compound 371] ({Tridecanoyl-γGlu-AEEA-AEEA}-[dQ][hArg]P[dR][Cha]SHK[Tle][Oic][Nle]P[Phe(4-Cl)]-OH) | 90 | 28 | 81 |
| CCCCCC(=O)N[C@@H](CCC(=O)NCCOCCOCC(=O)NCCOCCOCC(=O)N[C@@H](CCC(N)=O)C(=O)N[C@@H](CCCNC(=N)N)C(=O)N1CCC[C@H]1C(=O)N(C)[C@@H](CCCNC(=N)N)C(=O)N[C@@H](CC1CCCCC1)C(=O)N[C@@H](CO)C(=O)N[C@@H](Cc1c[nH]cn1)C(=O)N[C@@H](CCCCN)C(=O)NCC(=O)N1[C@H](C(=O)N[C@@H](CCCC)C(=O)NC(C)(C)C(=O)N[C@@H](Cc2ccc(Cl)cc2)C(=O)O)C[C@@H]2CCCC[C@@H]21)C(=O)O [compound 562] ({Hexanoyl-γGlu-AEEA-AEEA}-QRP[NMeR][Cha]SHKG[Oic][Nle][Aib][Phe(4-Cl)]-OH) | > 90 | < 1 | 4 |
| CCCCCCCCCCCCC(=O)N[C@@H](CCC(=O)NCCOCCOCC(=O)NCCOCCOCC(=O)N[C@@H](CCC(N)=O)C(=O)N[C@@H](CCCNC(=N)N)C(=O)N1CCC[C@H]1C(=O)N(C)[C@@H](CCCNC(=N)N)C(=O)N[C@@H](CC1CCCCC1)C(=O)N[C@@H](CO)C(=O)N[C@@H](Cc1c[nH]cn1)C(=O)N[C@@H](CCCCN)C(=O)NCC(=O)N1CCC[C@H]1C(=O)N[C@@H](CCCC)C(=O)N1CCC[C@H]1C(=O)N[C@@H](Cc1ccc(Cl)cc1)C(=O)O)C(=O)O [compound 361] ({Tridecanoyl-γGlu-AEEA-AEEA}-QRP[NMeR][Cha]SHKGP[Nle]P[Phe(4-Cl)]-OH) | 34.5 | 0.5 | 1.5 |
| CCCC[C@H](NC(=O)[C@@H]1CCCN1C(=O)CNC(=O)[C@H](CCCCN)NC(=O)[C@H](Cc1c[nH]cn1)NC(=O)[C@H](CO)NC(=O)[C@](C)(CC(C)C)NC(=O)[C@H](CCCNC(=N)N)N(C)C(=O)[C@@H]1CCCN1C(=O)[C@H](CCCCNC(=N)N)NC(=O)[C@H](CCC(N)=O)NC(C)=O)C(=O)N1CCC[C@H]1C(=O)N[C@@H](Cc1ccc(Cl)cc1)C(=O)O [compound 71] | 0 | 0.1 | 35.5 |

Continued, values first:

| remaining at 4 h, 5 μM [1] [%] | remaining at 4 h, 5 μM [2] [%] | remaining at 4 h, 5 μM [3] [%] | Compound |
| --- | --- | --- | --- |
| > 90 | 13.8 | 66.8 | CCCCCCCCCCCCC(=O)N[C@@H](CCC(=O)NCCOCCOCC(=O)NCCOCCOCC(=O)N[C@@H](CCCN)C(=O)N[C@@H](Cc1ccccc1)C(=O)N[C@@H](CCCCNC(=N)N)C(=O)N[C@@H](CCCCNC(=N)N)C(=O)N[C@H](CC(=O)N[C@@H](CCCCNC(=N)N)C(=O)N1CCC[C@H]1C(=O)N[C@@H](CCCCNC(=N)N)C(=O)N[C@@H](CC1CCCCC1)C(=O)N[C@@H](CO)C(=O)N[C@@H](Cc1c[nH]cn1)C(=O)N[C@@H](CCCCN)C(=O)NCC(=O)N1[C@H](C(=O)N[C@@H](CCCC)C(=O)N2CCC[C@H]2C(=O)N[C@@H](Cc2ccc(Cl)cc2)C(=O)O)C[C@@H]2CCCC[C@@H]21)C(C)C)C(=O)O [compound 307] ({Tridecanoyl-γGlu-AEEA-AEEA}-[Orn]F[hArg][hArg][β3hV][hArg]P[hArg][Cha]SHKG[Oic][Nle]P[Phe(4-Cl)]-OH) |
| 65 | 99 | 4 | CCCCCCCCCCCCC(=O)N[C@@H](CCC(=O)NCCOCCOCC(=O)NCCOCCOCC(=O)N[C@H](CCC(N)=O)C(=O)N[C@@H](CCCNC(=N)N)C(=O)N1CCC[C@H]1C(=O)N(C)[C@@H](CCCNC(=N)N)C(=O)N[C@@H](CC1CCCCC1)C(=O)N[C@@H](CO)C(=O)N[C@@H](Cc1c[nH]cn1)C(=O)N[C@@H](CCCCN)C(=O)NCC(=O)N1[C@H](C(=O)N[C@@H](CCCC)C(=O)N2CCC[C@H]2C(=O)N[C@@H](Cc2ccc(Cl)cc2)C(=O)O)C[C@@H]2CCCC[C@@H]21)C(=O)O [compound 377] ({Tridecanoyl-γGlu-AEEA-AEEA}-[dQ]RP[NMeR][Cha]SHKG[Oic][Nle]P[Phe(4-Cl)]-OH) |
| 88 | 0 | 6 | CCCCCCCCCCCCC(=O)N[C@@H](CCC(=O)NCCOCCOCC(=O)NCCOCCOCC(=O)N[C@@H](CCCNC(=N)N)C(=O)N[C@@H](CCC(N)=O)C(=O)N[C@@H](CCCNC(=N)N)C(=O)N1CCC[C@H]1C(=O)N[C@@H](CCCC)C(=O)N[C@@H](CC1CCCCC1)C(=O)N[C@@H](C)C(=O)N[C@@H](Cc1c[nH]cn1)C(=O)N[C@@H](CCCCN)C(=O)NCC(=O)N1[C@H](C(=O)N[C@@H](CCCC)C(=O)N2CCC[C@H]2C(=O)N[C@@H](Cc2ccc(Cl)cc2)C(=O)O)C[C@@H]2CCCC[C@@H]21)C(=O)O [compound 344] ({Tridecanoyl-γGlu-AEEA-AEEA}-RQRP[Nle][Cha]AHKG[Oic][Nle]P[Phe(4-Cl)]-OH) |
| 76 | 55 | 0 | CCCCCCCCCCCCC(=O)N[C@@H](CCC(=O)NCCOCCOCC(=O)NCCOCCOCC(=O)N[C@@H](CCCCNC(=N)N)C(=O)N[C@H](CCCNC(=N)N)C(=O)N[C@@H](CCC(N)=O)C(=O)N[C@@H](CCCC)C(=O)N1CCC[C@H]1C(=O)N[C@H](CCCNC(=N)N)C(=O)N(C)[C@@H](CC(C)C)C(=O)N[C@@H](CO)C(=O)N[C@@H](C)C(=O)N[C@@H](CCCCN)C(=O)NCC(=O)N1[C@H](C(=O)N[C@@H](Cc2ccc(I)cc2)C(=O)N2CCC[C@H]2C(=O)N[C@H](Cc2ccc(-c3ccccc3)cc2)C(=O)O)C[C@@H]2CCCC[C@@H]21)C(=O)O [compound 328] ({Tridecanoyl-γGlu-AEEA-AEEA}-[hArg][dR]Q[Nle]P[dR][NMeL]SAKG[Oic][Phe(4-I)]P[dBip]-OH) |
| 86 | < 1 | 3 | CCCCCCCCCCCCCCCCC(=O)N[C@@H](CCC(=O)NCCOCCOCC(=O)NCCOCCOCC(=O)N[C@@H](CCC(N)=O)C(=O)N[C@@H](CCCNC(=N)N)C(=O)N1CCC[C@H]1C(=O)N(C)[C@@H](CCCNC(=N)N)C(=O)N[C@@H](CC(C)C)C(=O)N[C@@H](CO)C(=O)N[C@@H](Cc1c[nH]cn1)C(=O)N[C@@H](CCCCN)C(=O)NCC(=O)N1CCC[C@H]1C(=O)N[C@@H](CCCC)C(=O)N1CCC[C@H]1C(=O)N[C@@H](Cc1ccc(Cl)cc1)C(=O)O)C(=O)O [compound 496] |
| 76 | 1 | 12 | CCCCCCCCCCCCC(=O)N[C@@H](CCC(=O)NCCOCCOCC(=O)NCCOCCOCC(=O)N[C@@H](CCCC)C(=O)N[C@@H](CCC(N)=O)C(=O)N[C@@H](CCCNC(=N)N)C(=O)N1CCC[C@H]1C(=O)N[C@@H](CCCCNC(=N)N)C(=O)N[C@@H](CC1CCCCC1)C(=O)N[C@@H](CO)C(=O)N[C@@H](Cc1c[nH]cn1)C(=O)N[C@@H](CCCCN)C(=O)NCC(=O)N1[C@H](C(=O)N[C@@H](CCCC)C(=O)N2CCC[C@H]2C(=O)N[C@@H](Cc2ccc(Cl)cc2)C(=O)O)C[C@@H]2CCCC[C@@H]21)C(=O)O [compound 338] ({Tridecanoyl-γGlu-AEEA-AEEA}-[Nle]QRP[hArg][Cha]SHKG[Oic][Nle]P[Phe(4-Cl)]-OH) |
